According to patent publication US10098852B2 (LAUNX BIOMEDICAL CO., LTD., priority 2014, dated 2018):
“And” between values parts separate entries of the source, which are not always exact repeats. Equal entries are not always repeated. Where two headings read alike, the source gives them in different places.

Tests used:
[1] = system: MDA-MB-231 (Mammary Gland, Adenocarcinoma); assay: Cell viability analysis (WST-1), breast cancer cell line MDA-MB-231; assay type: cell-based; details: Homo sapiens
Procedure: (§1) The cell numbers were counted and reseed as 2×10^6 in cell culture plate/flask. Then, the culture medium was added to a volume of 10 ml, and the cells were cultured for 2-3 days. Then, the cells were suspended for loading into 96-well plates. The cell number was 3000/well and the volume of the culture medium was 100 μl each well.
(§2) Removing the original culture medium from 96-well plate. Then add 100 μl of commercially drug at a concentration of 10 μM per well. After 72 hours, add the diluted WST-1 reagent to the well with 100 μl/well, and the diluted WST-1 reagent was acquired from the dilution of 9:1 medium and WST-1 stock reagent. Finally, the total volume of each well was 200 μl/well. Culture the 96-well plate at 37° C. for 30 to 90 minutes. Detecting and calculate the survival rate of each cancer cells with an ELISA reader at OD450 nm.

[2] = system: MCF7 (Mammary Gland, Adenocarcinoma); assay: Cell viability analysis (WST-1), breast cancer cell line MCF7; assay type: cell-based; details: Homo sapiens
Procedure: as §1, §2

[3] = system: SAS (Tongue squamous cell carcinoma); assay: Cell viability analysis (WST-1), tongue cancer cell line SAS; assay type: cell-based
Procedure: as §1, §2

normal cells = assay: Toxicity to normal cells (overall statement); assay type: cell-based
[4] = system: TOV-21G (ovarian cancer cell line); assay: Cell viability analysis (WST-1), ovarian cancer cell line TOV-21G; assay type: cell-based; details: Homo sapiens, TOV21G
Procedure: as §1, §2

gastric cancer cell = assay: Summary of the effect on gastric cancer cell (AGS, MKN-45); assay type: cell-based; details: Homo sapiens, gastric cancer cell (mean of AGS and MKN-45 averages), 72 hours, read-out: Inhibitory effect
Procedure: as §2

[5] = system: H1650 (lung adenocarcinoma); assay: Cell viability analysis (WST-1), lung cancer cell line H1650; assay type: cell-based; details: Homo sapiens
Procedure: as §1, §2

ovarian cancer cell = assay: Summary of the effect on ovarian cancer cell (NIH-OVCAR-3, TOV-21G); assay type: cell-based; details: ovarian cancer cell (mean of NIH-OVCAR-3 and TOV-21G averages), 72 hours, read-out: Inhibitory effect
Procedure: as §2

[6] = system: gastric cancer cells (AGS) subcutaneous tumor; assay: Animal model test of gastric cancer: tumor size; assay type: in vivo, mice (BALB/cAnN.Cg-Foxn1nu/CrlNarl); details: for Tumor volume growth, average / tumor volume, average: group average; for Tumor volume growth / tumor longest length / tumor volume / tumor width: individual mice A, B, C
Procedure: In this invention, the female mice were (BALB/cAnN.Cg-Foxn1^nu/CrlNarl) purchased from National Laboratory Animal Center (Taiwan)). The weight of the mice were 21±1 g. These mice were subcutaneously injected with gastric cancer cells (AGS) and then put these mice into different cages at random. The drug test experiment was divided into three groups, include “control group”, “low dose group (100 mg/kg/day)”, and “high dose group (200 mg/kg/day)”. These mice were then injected test drug intraperitoneally once daily […]. The tumor sizes and body weight were measured twice a week. The tumor sizes were measured and calculated by formula: (L×W^2)/2. L represents the tumor longest length. W represents the tumor shortest diameter.

[7] = system: AsPC-1 (pancreatic cancer cell line); assay: Cell viability analysis (WST-1), pancreatic cancer cell line AsPC-1; assay type: cell-based; details: Homo sapiens
Procedure: as §1, §2

[8] = high dose (200 mg/kg/day) i.p. once daily, Fifth measurement
[9] = high dose (200 mg/kg/day) i.p. once daily, First measurement
[10] = high dose (200 mg/kg/day) i.p. once daily, First measurement, 200 mg/kg/day
[11] = high dose (200 mg/kg/day) i.p. once daily, Fourth measurement
[12] = high dose (200 mg/kg/day) i.p. once daily, Second measurement
[13] = high dose (200 mg/kg/day) i.p. once daily, Second measurement, 200 mg/kg/day
[14] = high dose (200 mg/kg/day) i.p. once daily, Third measurement
[15] = high dose (200 mg/kg/day) i.p. once daily, Third measurement, 200 mg/kg/day
[16] = low dose (100 mg/kg/day) i.p. once daily, Fifth measurement
[17] = low dose (100 mg/kg/day) i.p. once daily, Fifth measurement, 100 mg/kg/day
[18] = low dose (100 mg/kg/day) i.p. once daily, First measurement
[19] = low dose (100 mg/kg/day) i.p. once daily, First measurement, 100 mg/kg/day
[20] = low dose (100 mg/kg/day) i.p. once daily, Fourth measurement
[21] = low dose (100 mg/kg/day) i.p. once daily, Fourth measurement, 100 mg/kg/day
[22] = low dose (100 mg/kg/day) i.p. once daily, Second measurement
[23] = low dose (100 mg/kg/day) i.p. once daily, Second measurement, 100 mg/kg/day
[24] = low dose (100 mg/kg/day) i.p. once daily, Third measurement
[25] = low dose (100 mg/kg/day) i.p. once daily, Third measurement, 100 mg/kg/day

SMILES: Oc1ccc(OCc2ccccc2)cc1 [Monobenzone]
- viability at 10 µM ([1]; MDA-MB-231, 72 h, MDA-MB-231, 10 μM, average of 4 tests, read-out: inhibition effect (survival rate of cells), average): 80.1%
- viability at 10 µM ([1]; MDA-MB-231, MDA-MB-231, 10 μM, 72 hours, test 0612-10 min, read-out: inhibition effect (survival rate of cells)): 91.3%
- viability at 10 µM ([1]; MDA-MB-231, MDA-MB-231, 10 μM, 72 hours, test 0614-10 min, read-out: inhibition effect (survival rate of cells)): 67.6%
- viability at 10 µM ([1]; MDA-MB-231, MDA-MB-231, 10 μM, 72 hours, test 0616-10 min, read-out: inhibition effect (survival rate of cells)): 69.6%
- viability at 10 µM ([1]; MDA-MB-231, MDA-MB-231, 10 μM, 72 hours, test 0619-10 min, read-out: inhibition effect (survival rate of cells)): 92%
- viability at 10 µM ([2]; MCF7, 72 h, MCF7, 10 μM, average of 4 tests, read-out: inhibition effect (survival rate of cells), average): 95.7%
- viability at 10 µM ([2]; MCF7, MCF7, 10 μM, 72 hours, test 0612-10 min, read-out: inhibition effect (survival rate of cells)): 107%
- viability at 10 µM ([2]; MCF7, MCF7, 10 μM, 72 hours, test 0614-10 min, read-out: inhibition effect (survival rate of cells)): 88.8%
- viability at 10 µM ([2]; MCF7, MCF7, 10 μM, 72 hours, test 0616-10 min, read-out: inhibition effect (survival rate of cells)): 80.6%
- viability at 10 µM ([2]; MCF7, MCF7, 10 μM, 72 hours, test 0619-10 min, read-out: inhibition effect (survival rate of cells)): 106%
- viability at 10 µM ([3]; 72 h, SAS, average of 4 tests, read-out: inhibition effect (survival rate of cells), average): 90.3%
- viability at 10 µM ([3]; 72 h, tongue cancer cell (SAS average), read-out: Inhibitory effect): 90.3%
- viability at 10 µM ([3]; SAS, 72 hours, test 6-26-10 min, read-out: inhibition effect (survival rate of cells)): 97.3%
- viability at 10 µM ([3]; SAS, 72 hours, test 6-28-10 min, read-out: inhibition effect (survival rate of cells)): 59.4%
- viability at 10 µM ([3]; SAS, 72 hours, test 6-30-10 min, read-out: inhibition effect (survival rate of cells)): 89.6%
- viability at 10 µM ([3]; SAS, 72 hours, test 7-3-10 min, read-out: inhibition effect (survival rate of cells)): 115%
- toxicity to normal cells (in words) (normal cells): no toxicity or had little toxicity to normal cells
- viability at 10 µM ([4]; 72 h, average of 4 tests, read-out: inhibition effect (survival rate of cells), average): 78.4%
- viability at 10 µM ([4]; 72 hours, test 7-3-30 min, read-out: inhibition effect (survival rate of cells)): 93.9%
- viability at 10 µM ([4]; 72 hours, test 7-4-30 min, read-out: inhibition effect (survival rate of cells)): 78.4%
- viability at 10 µM ([4]; 72 hours, test 7-7-30 min, read-out: inhibition effect (survival rate of cells)): 69.6%
- viability at 10 µM ([4]; 72 hours, test −4-30 min, read-out: inhibition effect (survival rate of cells)): 71.6%
- viability at 10 µM (gastric cancer cell): 82.8%
- viability at 10 µM ([5]; NCI-H1650, 72 h, H1650, 10 μM, average of 4 tests, read-out: inhibition effect (survival rate of cells), Average): 86.3%
- viability at 10 µM ([5]; NCI-H1650, H1650, 10 μM, 72 hours, test 1-10 min, read-out: inhibition effect (survival rate of cells)): 90.1%
- viability at 10 µM ([5]; NCI-H1650, H1650, 10 μM, 72 hours, test 2-20 min, read-out: inhibition effect (survival rate of cells)): 66.6%
- viability at 10 µM ([5]; NCI-H1650, H1650, 10 μM, 72 hours, test 3-20 min, read-out: inhibition effect (survival rate of cells)): 86.7%
- viability at 10 µM ([5]; NCI-H1650, H1650, 10 μM, 72 hours, test 4-20 min, read-out: inhibition effect (survival rate of cells)): 102%
- viability at 10 µM (ovarian cancer cell): 85%
- inhibition effect on tumor cells (in words) ([6]; both low dose (100 mg/kg/day) and high dose (200 mg/kg/day), FIG. 2): significant inhibition effect on tumor cells
- Tumor volume growth, average [6, 8]: 0 mm3
- tumor volume, average [6, 8]: 0 mm3
- Tumor volume growth [6, 8]: 0 mm3
- tumor longest length [6, 8]: 0 mm
- tumor volume [6, 8]: 0 mm3
- tumor width [6, 8]: 0 mm
- Tumor volume growth, average [6, 9]: 25.67 mm3
- tumor volume, average [6, 9]: 25.67 mm3
- Tumor volume growth [6, 10]: 18 mm3 and 27 mm3 and 32 mm3
- tumor longest length [6, 10]: 4 mm (2×) and 6 mm
- tumor volume [6, 10]: 18 mm3 and 27 mm3 and 32 mm3
- tumor width [6, 10]: 3 mm (2×) and 4 mm
- Tumor volume growth, average [6, 11]: −50 mm3
- tumor volume, average [6, 11]: 0 mm3
- tumor longest length [6, 11]: 0 mm
- tumor volume [6, 11]: 0 mm3
- tumor width [6, 11]: 0 mm
- Tumor volume growth ([6]; high dose (200 mg/kg/day) i.p. once daily, Fourth measurement, 200 mg/kg/day): −87.5 mm3 and −62.5 mm3 and 0 mm3
- Tumor volume growth, average [6, 12]: 57.67 mm3
- tumor volume, average [6, 12]: 83.33 mm3
- tumor width [6, 12]: 5 mm
- Tumor volume growth [6, 13]: 69.5 mm3 and 48 mm3 and 55.5 mm3
- tumor longest length [6, 13]: 7 mm (2×) and 6 mm
- tumor volume [6, 13]: 87.5 mm3 (2×) and 75 mm3
- Tumor volume growth, average [6, 14]: −33.3333 mm3
- tumor volume, average [6, 14]: 50 mm3
- Tumor volume growth [6, 15]: 0 mm3 and −12.5 mm3 and −87.5 mm3
- tumor longest length [6, 15]: 7 mm and 5 mm and 0 mm
- tumor volume [6, 15]: 87.5 mm3 and 62.5 mm3 and 0 mm3
- tumor width [6, 15]: 5 mm (2×) and 0 mm
- effect on tumor volume growth (in words) ([6]; high dose (200 mg/kg/day), FIG. 3): effectively slow down the tumor volume growth, and can also reduce the tumor volume
- Tumor volume growth, average [6, 16]: 2.667 mm3
- tumor volume, average [6, 16]: 22 mm3
- Tumor volume growth [6, 17]: 0 mm3 (2×) and 8 mm3
- tumor longest length [6, 17]: 4 mm and 6 mm and 0 mm
- tumor volume [6, 17]: 18 mm3 and 48 mm3 and 0 mm3
- tumor width [6, 17]: 3 mm and 4 mm and 0 mm
- Tumor volume growth, average [6, 18]: 176.3333 mm3
- tumor volume, average [6, 18]: 176.3333 mm3
- Tumor volume growth [6, 19]: 256 mm3 and 147 mm3 and 126 mm3
- tumor longest length [6, 19]: 8 mm and 6 mm and 7 mm
- tumor volume [6, 19]: 256 mm3 and 147 mm3 and 126 mm3
- tumor width [6, 19]: 8 mm and 7 mm and 6 mm
- Tumor volume growth, average [6, 20]: −88 mm3
- tumor volume, average [6, 20]: 19.33 mm3
- Tumor volume growth [6, 21]: −108 mm3 and −68 mm3 and −88 mm3
- tumor longest length [6, 21]: 4 mm and 5 mm and 0 mm
- tumor volume [6, 21]: 18 mm3 and 40 mm3 and 0 mm3
- tumor width [6, 21]: 3 mm and 4 mm and 0 mm
- Tumor volume growth, average [6, 22]: −77.5 mm3
- tumor volume, average [6, 22]: 98.83 mm3
- Tumor volume growth [6, 23]: −130 mm3 and −39 mm3 and −63.5 mm3
- tumor longest length [6, 23]: 7 mm and 6 mm and 5 mm
- tumor volume [6, 23]: 126 mm3 and 108 mm3 and 62.5 mm3
- tumor width [6, 23]: 6 mm (2×) and 5 mm
- Tumor volume growth, average [6, 24]: 0 mm3
- tumor volume, average [6, 24]: 98.83 mm3
- Tumor volume growth [6, 24]: 0 mm3
- tumor longest length [6, 25]: 7 mm and 6 mm and 5 mm
- tumor volume [6, 25]: 126 mm3 and 108 mm3 and 62.5 mm3
- tumor width [6, 25]: 6 mm (2×) and 5 mm
- viability at 10 µM ([7]; ASPC1, 72 h, AsPC-1, 10 μM, average of 4 tests, read-out: inhibition effect (survival rate of cells), average): 95.1%
- viability at 10 µM ([7]; ASPC1, AsPC-1, 10 μM, 72 hours, test 1-4-30 min, read-out: inhibition effect (survival rate of cells)): 93.7%
- viability at 10 µM ([7]; ASPC1, AsPC-1, 10 μM, 72 hours, test 1-7-3-30 min, read-out: inhibition effect (survival rate of cells)): 88.7%
- viability at 10 µM ([7]; ASPC1, AsPC-1, 10 μM, 72 hours, test 1-7-4-30 min, read-out: inhibition effect (survival rate of cells)): 116%
- viability at 10 µM ([7]; ASPC1, AsPC-1, 10 μM, 72 hours, test 1-7-7-30 min, read-out: inhibition effect (survival rate of cells)): 81.7%
